Assay results taken from the supplement of paper PMC10307832.

What was measured:
Assay in all cases: relative viability (nuclei count vs DMSO), 5 days (fraction); higher = more cells survive
NVP-TAE684 + Foretinib = compound: COc1cc(N2CCC(N3CCN(C)CC3)CC2)ccc1Nc1ncc(Cl)c(Nc2ccccc2S(=O)(=O)C(C)C)n1 [NVP-TAE684] + COc1cc2c(Oc3ccc(NC(=O)C4(C(=O)Nc5ccc(F)cc5)CC4)cc3F)ccnc2cc1OCCCN1CCOCC1 [Foretinib] (partner 0.25 µM)
Procedure, shortened: (§1)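 The day after seeding in 1536-well plates, lung cancer cell lines were treated by pin tool with a single drug, or with a fixed anchor-drug dose together with five library-drug doses (not always all listed) in √10 steps. After 5 days, a combined fix-and-stain solution (final 0.05% Triton X-100, 1% formaldehyde, 1 ug/ml Hoechst) was added. Nuclei counted on 4× images gave relative viability as treated counts over vehicle counts, reported as the median of duplicate plates.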

NVP-TAE684 + Luminespib = compound: COc1cc(N2CCC(N3CCN(C)CC3)CC2)ccc1Nc1ncc(Cl)c(Nc2ccccc2S(=O)(=O)C(C)C)n1 [NVP-TAE684] + CCNC(=O)c1noc(-c2cc(C(C)C)c(O)cc2O)c1-c1ccc(CN2CCOCC2)cc1 [Luminespib] (partner 0.01 µM)
Procedure, shortened: as §1

CUDC-101 + AZD7762 = compound: C#Cc1cccc(Nc2ncnc3cc(OC)c(OCCCCCCC(=O)NO)cc23)c1 [CUDC-101] + NC(=O)Nc1cc(-c2cccc(F)c2)sc1C(=O)N[C@H]1CCCNC1 [AZD7762] (partner 0.2 µM)
Procedure, shortened: as §1

[1] = compound: C1=CC=C2C(=C1)N=C(S2)C(C#N)C3=NC(=NC=C3)NCCC4=CN=CC=C4 + CC1(C)CCC(c2ccc(Cl)cc2)=C(CN2CCN(c3ccc(C(=O)NS(=O)(=O)c4ccc(N[C@H](CCN5CCOCC5)CSc5ccccc5)c(S(=O)(=O)C(F)(F)F)c4)cc3)CC2)C1 [Navitoclax] (partner 0.5 µM)
Procedure, shortened: as §1

NVP-TAE684 + Phenformin = compound: COc1cc(N2CCC(N3CCN(C)CC3)CC2)ccc1Nc1ncc(Cl)c(Nc2ccccc2S(=O)(=O)C(C)C)n1 [NVP-TAE684] + N=C(N)NC(=N)NCCc1ccccc1 [Phenformin] (partner 250 µM)
Procedure, shortened: as §1

ChaGo-K-1
relative viability (NVP-TAE684 + Foretinib; first compound 0.2 µM): 0.943
relative viability (NVP-TAE684 + Foretinib; first compound 0.6325 µM): 0.818
relative viability (NVP-TAE684 + Foretinib; first compound 2 µM): 0.538
relative viability (NVP-TAE684 + Luminespib; first compound 0.2 µM): 0.661
relative viability (NVP-TAE684 + Luminespib; first compound 0.6325 µM): 0.67
relative viability (NVP-TAE684 + Luminespib; first compound 2 µM): 0.44
relative viability (CUDC-101 + AZD7762; first compound 0.01 µM): 0.92
relative viability (CUDC-101 + AZD7762; first compound 0.03162 µM): 0.913
relative viability (CUDC-101 + AZD7762; first compound 0.1 µM): 0.937
relative viability (CUDC-101 + AZD7762; first compound 0.3162 µM): 0.841
relative viability (CUDC-101 + AZD7762; first compound 1 µM): 0.732
relative viability ([1]; first compound 0.005 µM): 0.955
relative viability ([1]; first compound 0.05 µM): 0.838
relative viability ([1]; first compound 0.1581 µM): 1.21
relative viability ([1]; first compound 0.5 µM): 0.954
relative viability (NVP-TAE684 + Phenformin; first compound 0.2 µM): 0.533
relative viability (NVP-TAE684 + Phenformin; first compound 0.6325 µM): 0.457
relative viability (NVP-TAE684 + Phenformin; first compound 2 µM): 0.339

EBC-1
relative viability (NVP-TAE684 + Foretinib; first compound 0.2 µM): 0.0925
relative viability (NVP-TAE684 + Foretinib; first compound 0.6325 µM): 0.117
relative viability (NVP-TAE684 + Foretinib; first compound 2 µM): 0.107
relative viability ([1]; first compound 0.005 µM): 0.402
relative viability ([1]; first compound 0.01581 µM): 0.426
relative viability ([1]; first compound 0.05 µM): 0.317
relative viability ([1]; first compound 0.1581 µM): 0.472
relative viability ([1]; first compound 0.5 µM): 0.298

EKVX
relative viability (NVP-TAE684 + Foretinib; first compound 0.2 µM): 0.51
relative viability (NVP-TAE684 + Foretinib; first compound 0.6325 µM): 0.806
relative viability (NVP-TAE684 + Foretinib; first compound 2 µM): 0.537
relative viability (NVP-TAE684 + Luminespib; first compound 0.2 µM): 0.877
relative viability (NVP-TAE684 + Luminespib; first compound 0.6325 µM): 0.913
relative viability (NVP-TAE684 + Luminespib; first compound 2 µM): 0.754
relative viability (CUDC-101 + AZD7762; first compound 0.01 µM): 0.84
relative viability (CUDC-101 + AZD7762; first compound 0.03162 µM): 0.68
relative viability (CUDC-101 + AZD7762; first compound 0.1 µM): 0.656
relative viability (CUDC-101 + AZD7762; first compound 0.3162 µM): 0.771
relative viability (CUDC-101 + AZD7762; first compound 1 µM): 0.563
relative viability ([1]; first compound 0.005 µM): 0.947
relative viability ([1]; first compound 0.01581 µM): 0.986
relative viability ([1]; first compound 0.05 µM): 1.09
relative viability ([1]; first compound 0.1581 µM): 0.949
relative viability ([1]; first compound 0.5 µM): 1.11
relative viability (NVP-TAE684 + Phenformin; first compound 0.2 µM): 0.24
relative viability (NVP-TAE684 + Phenformin; first compound 0.6325 µM): 0.23
relative viability (NVP-TAE684 + Phenformin; first compound 2 µM): 0.208

EMC-BAC-2
relative viability (NVP-TAE684 + Foretinib; first compound 0.2 µM): 0.958
relative viability (NVP-TAE684 + Foretinib; first compound 0.6325 µM): 0.977
relative viability (NVP-TAE684 + Foretinib; first compound 2 µM): 0.467
relative viability (NVP-TAE684 + Luminespib; first compound 0.6325 µM): 1.21
relative viability (NVP-TAE684 + Luminespib; first compound 2 µM): 0.824
relative viability (CUDC-101 + AZD7762; first compound 0.01 µM): 1.08
relative viability (CUDC-101 + AZD7762; first compound 0.03162 µM): 1.09
relative viability (CUDC-101 + AZD7762; first compound 0.1 µM): 1.06
relative viability (CUDC-101 + AZD7762; first compound 0.3162 µM): 0.947
relative viability (CUDC-101 + AZD7762; first compound 1 µM): 0.443
relative viability ([1]; first compound 0.005 µM): 0.823
relative viability ([1]; first compound 0.01581 µM): 1.19
relative viability ([1]; first compound 0.05 µM): 1.14
relative viability ([1]; first compound 0.1581 µM): 1.2
relative viability ([1]; first compound 0.5 µM): 1.01
relative viability (NVP-TAE684 + Phenformin; first compound 0.2 µM): 0.402
relative viability (NVP-TAE684 + Phenformin; first compound 0.6325 µM): 0.464
relative viability (NVP-TAE684 + Phenformin; first compound 2 µM): 0.319

EPLC-272H
relative viability (NVP-TAE684 + Foretinib; first compound 0.2 µM): 0.756
relative viability (NVP-TAE684 + Foretinib; first compound 0.6325 µM): 0.639
relative viability (NVP-TAE684 + Foretinib; first compound 2 µM): 0.247
relative viability (NVP-TAE684 + Luminespib; first compound 0.2 µM): 0.185
relative viability (NVP-TAE684 + Luminespib; first compound 0.6325 µM): 0.382
relative viability (NVP-TAE684 + Luminespib; first compound 2 µM): 0.217
relative viability (CUDC-101 + AZD7762; first compound 0.01 µM): 0.187
relative viability (CUDC-101 + AZD7762; first compound 0.03162 µM): 0.139
relative viability (CUDC-101 + AZD7762; first compound 0.1 µM): 0.175
relative viability (CUDC-101 + AZD7762; first compound 0.3162 µM): 0.109
relative viability (CUDC-101 + AZD7762; first compound 1 µM): 0.115
relative viability ([1]; first compound 0.005 µM): 0.94
relative viability ([1]; first compound 0.01581 µM): 1.05
relative viability ([1]; first compound 0.05 µM): 1.14
relative viability ([1]; first compound 0.1581 µM): 1.04
relative viability ([1]; first compound 0.5 µM): 1.08
relative viability (NVP-TAE684 + Phenformin; first compound 0.2 µM): 0.282
relative viability (NVP-TAE684 + Phenformin; first compound 0.6325 µM): 0.267
relative viability (NVP-TAE684 + Phenformin; first compound 2 µM): 0.146

H3255
relative viability (NVP-TAE684 + Foretinib; first compound 0.2 µM): 0.882
relative viability (NVP-TAE684 + Foretinib; first compound 0.6325 µM): 0.804
relative viability (NVP-TAE684 + Foretinib; first compound 2 µM): 0.631
relative viability (NVP-TAE684 + Luminespib; first compound 0.2 µM): 0.897
relative viability (NVP-TAE684 + Luminespib; first compound 0.6325 µM): 0.828
relative viability (NVP-TAE684 + Luminespib; first compound 2 µM): 0.765
relative viability (CUDC-101 + AZD7762; first compound 0.01 µM): 1.01
relative viability (CUDC-101 + AZD7762; first compound 0.03162 µM): 0.721
relative viability (CUDC-101 + AZD7762; first compound 0.1 µM): 0.546
relative viability (CUDC-101 + AZD7762; first compound 0.3162 µM): 0.556
relative viability (CUDC-101 + AZD7762; first compound 1 µM): 0.259
relative viability ([1]; first compound 0.005 µM): 0.591
relative viability ([1]; first compound 0.01581 µM): 0.424
relative viability ([1]; first compound 0.05 µM): 0.567
relative viability ([1]; first compound 0.1581 µM): 0.689
relative viability ([1]; first compound 0.5 µM): 0.624
relative viability (NVP-TAE684 + Phenformin; first compound 0.2 µM): 0.348
relative viability (NVP-TAE684 + Phenformin; first compound 0.6325 µM): 0.397
relative viability (NVP-TAE684 + Phenformin; first compound 2 µM): 0.453

HARA
relative viability (NVP-TAE684 + Foretinib; first compound 0.2 µM): 0.886
relative viability (NVP-TAE684 + Foretinib; first compound 0.6325 µM): 0.619
relative viability (NVP-TAE684 + Foretinib; first compound 2 µM): 0.517
relative viability (NVP-TAE684 + Luminespib; first compound 0.2 µM): 0.991
relative viability (NVP-TAE684 + Luminespib; first compound 0.6325 µM): 0.517
relative viability (NVP-TAE684 + Luminespib; first compound 2 µM): 0.389
relative viability (CUDC-101 + AZD7762; first compound 0.01 µM): 0.31
relative viability (CUDC-101 + AZD7762; first compound 0.03162 µM): 0.507
relative viability (CUDC-101 + AZD7762; first compound 0.3162 µM): 0.24
relative viability (CUDC-101 + AZD7762; first compound 1 µM): 0.131
relative viability ([1]; first compound 0.005 µM): 1.09
relative viability ([1]; first compound 0.01581 µM): 1.16
relative viability ([1]; first compound 0.05 µM): 1.14
relative viability ([1]; first compound 0.1581 µM): 1.22
relative viability ([1]; first compound 0.5 µM): 1.21
relative viability (NVP-TAE684 + Phenformin; first compound 0.2 µM): 0.397
relative viability (NVP-TAE684 + Phenformin; first compound 0.6325 µM): 0.394
relative viability (NVP-TAE684 + Phenformin; first compound 2 µM): 0.304

HCC-15
relative viability (NVP-TAE684 + Foretinib; first compound 0.2 µM): 1.09
relative viability (NVP-TAE684 + Foretinib; first compound 0.6325 µM): 0.951
relative viability (NVP-TAE684 + Foretinib; first compound 2 µM): 0.453
relative viability (NVP-TAE684 + Luminespib; first compound 0.2 µM): 0.241
relative viability (NVP-TAE684 + Luminespib; first compound 0.6325 µM): 0.271
relative viability (NVP-TAE684 + Luminespib; first compound 2 µM): 0.232
relative viability (CUDC-101 + AZD7762; first compound 0.01 µM): 1.3
relative viability (CUDC-101 + AZD7762; first compound 0.03162 µM): 1.08
relative viability (CUDC-101 + AZD7762; first compound 0.1 µM): 1.2
relative viability (CUDC-101 + AZD7762; first compound 0.3162 µM): 1.15
relative viability (CUDC-101 + AZD7762; first compound 1 µM): 1.18
relative viability ([1]; first compound 0.005 µM): 0.736
relative viability ([1]; first compound 0.01581 µM): 0.787
relative viability ([1]; first compound 0.05 µM): 0.664
relative viability ([1]; first compound 0.1581 µM): 0.749
relative viability ([1]; first compound 0.5 µM): 0.602
relative viability (NVP-TAE684 + Phenformin; first compound 0.2 µM): 0.495
relative viability (NVP-TAE684 + Phenformin; first compound 0.6325 µM): 0.396
relative viability (NVP-TAE684 + Phenformin; first compound 2 µM): 0.238

HCC-44
relative viability (NVP-TAE684 + Luminespib; first compound 0.6325 µM): 0.912
relative viability (NVP-TAE684 + Luminespib; first compound 2 µM): 0.272
relative viability (CUDC-101 + AZD7762; first compound 0.01 µM): 1.04
relative viability (CUDC-101 + AZD7762; first compound 0.03162 µM): 1.01
relative viability (CUDC-101 + AZD7762; first compound 0.1 µM): 1.05
relative viability (CUDC-101 + AZD7762; first compound 0.3162 µM): 0.981
relative viability (CUDC-101 + AZD7762; first compound 1 µM): 1.06
relative viability ([1]; first compound 0.005 µM): 0.759
relative viability ([1]; first compound 0.01581 µM): 1.13
relative viability ([1]; first compound 0.05 µM): 0.906
relative viability ([1]; first compound 0.1581 µM): 1.02
relative viability ([1]; first compound 0.5 µM): 0.872
relative viability (NVP-TAE684 + Phenformin; first compound 0.2 µM): 0.263
relative viability (NVP-TAE684 + Phenformin; first compound 0.6325 µM): 0.141
relative viability (NVP-TAE684 + Phenformin; first compound 2 µM): 0.0733
